Source: patent publication EP1247803A2, “Indolinone compounds suitable for modulation of protein kinases” (Sugen, Inc., priority 1996, dated 1998)

Biological target: T1, EGFR (Homo sapiens, UniProt P00533)
T1 construct: Add 7 ug A431 cell lysate per well (EGFR source); endogenous in cells; host or cells: A431
Experiment: EGFR ELISA assay (in vitro kinase activity, EGFR captured from A431 cell lysate)
Type: biochemical
Set-up: concentration or dose not given beside the values
Method in brief: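 Receptor autophosphorylation was read by ELISA: anti-phosphotyrosine serum and an HRP-linked secondary with ABTS substrate, absorbance at 410 nm (reference 630 nm). The reaction ran 5 min with 3 µM ATP and 5 mM MnCl2 and was quenched by 20 mM EDTA. Compounds were first incubated 30 min with antibody-captured EGFR from A431 cell lysate.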

T1 sequence (P00533 25-1210): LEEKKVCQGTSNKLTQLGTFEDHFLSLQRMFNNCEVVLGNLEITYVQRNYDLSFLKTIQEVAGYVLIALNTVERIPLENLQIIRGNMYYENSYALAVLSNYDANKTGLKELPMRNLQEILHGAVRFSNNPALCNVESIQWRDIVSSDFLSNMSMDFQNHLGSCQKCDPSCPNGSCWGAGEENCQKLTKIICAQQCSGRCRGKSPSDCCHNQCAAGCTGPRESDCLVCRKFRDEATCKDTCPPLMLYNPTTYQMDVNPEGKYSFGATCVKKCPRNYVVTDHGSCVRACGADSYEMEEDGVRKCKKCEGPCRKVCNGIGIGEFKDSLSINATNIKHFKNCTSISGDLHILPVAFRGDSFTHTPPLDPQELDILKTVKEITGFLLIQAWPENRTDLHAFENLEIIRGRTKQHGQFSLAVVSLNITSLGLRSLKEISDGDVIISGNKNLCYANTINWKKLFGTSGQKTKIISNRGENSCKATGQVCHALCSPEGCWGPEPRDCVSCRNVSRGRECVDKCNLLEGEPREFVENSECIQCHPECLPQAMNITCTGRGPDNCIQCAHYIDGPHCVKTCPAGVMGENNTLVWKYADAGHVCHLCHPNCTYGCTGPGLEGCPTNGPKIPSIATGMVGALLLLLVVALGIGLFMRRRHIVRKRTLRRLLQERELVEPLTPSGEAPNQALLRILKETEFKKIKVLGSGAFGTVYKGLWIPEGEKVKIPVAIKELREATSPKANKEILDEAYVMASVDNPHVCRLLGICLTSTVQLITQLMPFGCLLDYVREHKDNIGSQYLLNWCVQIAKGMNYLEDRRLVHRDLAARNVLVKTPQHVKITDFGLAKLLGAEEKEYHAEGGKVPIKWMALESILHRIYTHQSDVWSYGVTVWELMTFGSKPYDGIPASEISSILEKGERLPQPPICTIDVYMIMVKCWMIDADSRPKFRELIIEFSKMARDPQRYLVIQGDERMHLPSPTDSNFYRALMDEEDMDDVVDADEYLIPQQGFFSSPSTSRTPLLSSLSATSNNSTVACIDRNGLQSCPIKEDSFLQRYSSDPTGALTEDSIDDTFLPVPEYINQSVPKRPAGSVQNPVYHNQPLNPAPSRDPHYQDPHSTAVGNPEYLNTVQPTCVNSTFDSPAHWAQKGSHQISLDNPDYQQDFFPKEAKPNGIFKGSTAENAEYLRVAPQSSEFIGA

Point of comparison: CNS(=O)(=O)c1ccc2c(c1)C(=Cc1c(OC)cc(OC)cc1OC)C(=O)N2 [10719/D06], “Biochem EGFR %Inhibition” value -12.2%. Against it:
- Cc1ccc(C=C2C(=O)Nc3ccc(I)cc32)s1 [10717/B07] — higher, 58.3%
- O=C1Nc2ccc(I)cc2C1=Cc1ccc(Br)cc1 [10717/B08] — higher, 60.5%
- O=C1Nc2ccc(I)cc2C1=Cc1ccc[nH]1 [10717/B09] — higher, 78.3%
- COc1cccc(O)c1C=C1C(=O)Nc2ccc(I)cc21 [10717/B10] — higher, 16.1%
- Cc1[nH]c(C=C2C(=O)Nc3ccc(I)cc32)c(Br)c1Br [10717/B11] — higher, 82.7%
- CCOc1ccccc1C=C1C(=O)Nc2ccc(Br)c(C)c21 [10717/C02] — higher, -0.4%
- Cc1c(Br)ccc2c1C(=Cc1cccs1)C(=O)N2 [10717/C03] — higher, 18.0%
- Cc1c(Br)ccc2c1C(=Cc1cccc([N+](=O)[O-])c1)C(=O)N2 [10719/C10] — higher, 10.7%
- Cc1c(Br)ccc2c1C(=Cc1ccc(F)cc1C(F)(F)F)C(=O)N2 [10719/C11] — lower, -25.7%
- CCOc1ccc(C=C2C(=O)Nc3ccc(S(=O)(=O)NC)cc32)cc1OC [10719/D02] — higher, 9.8%
- CNS(=O)(=O)c1ccc2c(c1)C(=Cc1ccc(O)c(O)c1)C(=O)N2 [10719/D03] — higher, 95.7%
- CNS(=O)(=O)c1ccc2c(c1)C(=Cc1ccc(OC)cc1OC)C(=O)N2 [10719/D04] — higher, 15.3%
- CCc1c(C)[nH]c(C=C2C(=O)Nc3ccc(S(=O)(=O)NC)cc32)c1C [10719/D05] — higher, 18.5%
- CNS(=O)(=O)c1ccc2c(c1)C(=Cc1ccc(O)cc1)C(=O)N2 [10719/D07] — higher, 13.7%
- CNS(=O)(=O)c1ccc2c(c1)C(=Cc1ccc(N(C)C)cc1)C(=O)N2 [10719/D08] — the same, -12.2%
- CNS(=O)(=O)c1ccc2c(c1)C(=Cc1ccc(F)cc1Cl)C(=O)N2 [10719/D09] — higher, -3.1%
- CNS(=O)(=O)c1ccc2c(c1)C(=Cc1cccc([N+](=O)[O-])c1)C(=O)N2 [10719/D10] — higher, -11.8%
- CCOc1ccc(C=C2C(=O)Nc3ccc(S(=O)(=O)Nc4ccc(C(F)(F)F)cc4)cc32)cc1OC [10719/E02] — higher, 40.0%
- O=C1Nc2ccc(S(=O)(=O)Nc3ccc(C(F)(F)F)cc3)cc2C1=Cc1ccc(O)c(O)c1 [10719/E03] — higher, 73.0%
- COc1ccc(C=C2C(=O)Nc3ccc(S(=O)(=O)Nc4ccc(C(F)(F)F)cc4)cc32)c(OC)c1 [10719/E04] — higher, -7.4%
- CCc1c(C)[nH]c(C=C2C(=O)Nc3ccc(S(=O)(=O)Nc4ccc(C(F)(F)F)cc4)cc32)c1C [10719/E05] — higher, 21.2%
- COc1cc(OC)c(C=C2C(=O)Nc3ccc(S(=O)(=O)Nc4ccc(C(F)(F)F)cc4)cc32)c(OC)c1 [10719/E06] — lower, -42.0%
- O=C1Nc2ccc(S(=O)(=O)Nc3ccc(C(F)(F)F)cc3)cc2C1=Cc1ccc(O)cc1 [10719/E07] — lower, -18.4%
- CN(C)c1ccc(C=C2C(=O)Nc3ccc(S(=O)(=O)Nc4ccc(C(F)(F)F)cc4)cc32)cc1 [10719/E08] — higher, 36.8%
- O=C1Nc2ccc(S(=O)(=O)Nc3ccc(C(F)(F)F)cc3)cc2C1=Cc1ccc(F)cc1Cl [10719/E09] — lower, -33.1%
- O=C1Nc2ccc(S(=O)(=O)Nc3ccc(C(F)(F)F)cc3)cc2C1=Cc1cccc([N+](=O)[O-])c1 [10719/E10] — lower, -32.4%
- O=C1Nc2ccc(S(=O)(=O)Nc3ccc(C(F)(F)F)cc3)cc2C1=Cc1ccc(F)cc1C(F)(F)F [10719/E11] — lower, -51.8%
- CCOc1ccc(C=C2C(=O)Nc3ccc(S(=O)(=O)N4CCOCC4)cc32)cc1OC [10719/F02] — higher, 14.8%
- O=C1Nc2ccc(S(=O)(=O)N3CCOCC3)cc2C1=Cc1ccc(O)c(O)c1 [10719/F03] — lower, -30.8%
- COc1ccc(C=C2C(=O)Nc3ccc(S(=O)(=O)N4CCOCC4)cc32)c(OC)c1 [10719/F04] — higher, -6.0%
- CCc1c(C)[nH]c(C=C2C(=O)Nc3ccc(S(=O)(=O)N4CCOCC4)cc32)c1C [10719/F05] — higher, 35.0%
- COc1cc(OC)c(C=C2C(=O)Nc3ccc(S(=O)(=O)N4CCOCC4)cc32)c(OC)c1 [10719/F06] — lower, -26.0%
- O=C1Nc2ccc(S(=O)(=O)N3CCOCC3)cc2C1=Cc1ccc(O)cc1 [10719/F07] — higher, 20.1%
- CN(C)c1ccc(C=C2C(=O)Nc3ccc(S(=O)(=O)N4CCOCC4)cc32)cc1 [10719/F08] — higher, 90.9%
- O=C1Nc2ccc(S(=O)(=O)N3CCOCC3)cc2C1=Cc1ccc(F)cc1Cl [10719/F09] — lower, -17.7%
- O=C1Nc2ccc(S(=O)(=O)N3CCOCC3)cc2C1=Cc1cccc([N+](=O)[O-])c1 [10719/F10] — lower, -17.7%
- O=C1Nc2ccc(S(=O)(=O)N3CCOCC3)cc2C1=Cc1ccc(F)cc1C(F)(F)F [10719/F11] — lower, -66.3%
- CCOc1ccc(C=C2C(=O)Nc3ccc(CCCl)cc32)cc1OC [10719/G02] — the same, -12.2%
- O=C1Nc2ccc(CCCl)cc2C1=Cc1ccc(O)c(O)c1 [10719/G03] — higher, 89.5%
- COc1ccc(C=C2C(=O)Nc3ccc(CCCl)cc32)c(OC)c1 [10719/G04] — higher, -4.7%
- CCc1c(C)[nH]c(C=C2C(=O)Nc3ccc(CCCl)cc32)c1C [10719/G05] — higher, 4.0%
- COc1cc(OC)c(C=C2C(=O)Nc3ccc(CCCl)cc32)c(OC)c1 [10719/G06] — lower, -45.7%
- O=C1Nc2ccc(CCCl)cc2C1=Cc1ccc(O)cc1 [10719/G07] — higher, -8.1%
- CN(C)c1ccc(C=C2C(=O)Nc3ccc(CCCl)cc32)cc1 [10719/G08] — higher, 65.4%
- O=C1Nc2ccc(CCCl)cc2C1=Cc1ccc(F)cc1Cl [10719/G09] — lower, -32.8%
- O=C1Nc2ccc(CCCl)cc2C1=Cc1cccc([N+](=O)[O-])c1 [10719/G10] — lower, -27.6%
- O=C1Nc2ccc(CCCl)cc2C1=Cc1ccc(F)cc1C(F)(F)F [10719/G11] — lower, -44.1%
- O=C1Nc2c(Br)cc(Br)cc2C1=Cc1c(F)cc(F)cc1F [10720/A02] — higher, 11.3%
- COc1cc(O)ccc1C=C1C(=O)Nc2c(Br)cc(Br)cc21 [10720/A03] — higher, -5.3%
- COc1ccc(C=C2C(=O)Nc3c(Br)cc(Br)cc32)cc1OC [10720/A04] — higher, -1.8%
- O=C1Nc2c(Br)cc(Br)cc2C1=Cc1ccccc1O [10720/A05] — higher, -4.4%
- O=C1Nc2c(Br)cc(Br)cc2C1=Cc1ccccc1 [10720/A06] — higher, 44.7%
- CSc1ccc(C=C2C(=O)Nc3c(Br)cc(Br)cc32)s1 [10720/A07] — higher, 42.5%
- Cc1cc(O)cc(O)c1C=C1C(=O)Nc2c(Br)cc(Br)cc21 [10720/A08] — lower, -23.2%
- CCOc1cc(C=C2C(=O)Nc3c(Br)cc(Br)cc32)ccc1O [10720/A09] — higher, 8.6%
- COc1ccc(O)c(C=C2C(=O)Nc3c(Br)cc(Br)cc32)c1 [10720/A10] — higher, -2.7%
- O=C1Nc2c(Br)cc(Br)cc2C1=Cc1ncc[nH]1 [10720/A11] — lower, -23.2%
- O=C1Nc2ccc(I)cc2C1=Cc1c(F)cc(F)cc1F [10720/B02] — higher, 18.4%
- COc1cc(O)ccc1C=C1C(=O)Nc2ccc(I)cc21 [10720/B03] — higher, 32.3%
- COc1ccc(C=C2C(=O)Nc3ccc(I)cc32)cc1OC [10720/B04] — higher, 50.5%
- O=C1Nc2ccc(I)cc2C1=Cc1ccccc1O [10720/B05] — higher, 58.4%
- O=C1Nc2ccc(I)cc2C1=Cc1ccccc1 [10720/B06] — higher, 21.2%
- CSc1ccc(C=C2C(=O)Nc3ccc(I)cc32)s1 [10720/B07] — higher, 52.0%
- Cc1cc(O)cc(O)c1C=C1C(=O)Nc2ccc(I)cc21 [10720/B08] — lower, -12.6%
- CCOc1cc(C=C2C(=O)Nc3ccc(I)cc32)ccc1O [10720/B09] — higher, 37.6%
- COc1ccc(O)c(C=C2C(=O)Nc3ccc(I)cc32)c1 [10720/B10] — higher, 50.2%
- O=C1Nc2ccc(I)cc2C1=Cc1ncc[nH]1 [10720/B11] — higher, 22.4%
- Cc1c(Br)ccc2c1C(=Cc1c(F)cc(F)cc1F)C(=O)N2 [10720/C02] — higher, 23.5%
- COc1cc(O)ccc1C=C1C(=O)Nc2ccc(Br)c(C)c21 [10720/C03] — higher, 0.9%
- COc1ccc(C=C2C(=O)Nc3ccc(Br)c(C)c32)cc1OC [10720/C04] — lower, -13.1%
- Cc1c(Br)ccc2c1C(=Cc1ccccc1O)C(=O)N2 [10720/C05] — lower, -15.3%
- Cc1c(Br)ccc2c1C(=Cc1ccccc1)C(=O)N2 [10720/C06] — higher, -9.7%
- CSc1ccc(C=C2C(=O)Nc3ccc(Br)c(C)c32)s1 [10720/C07] — lower, -25.4%
- Cc1cc(O)cc(O)c1C=C1C(=O)Nc2ccc(Br)c(C)c21 [10720/C08] — higher, -1.1%
- CCOc1cc(C=C2C(=O)Nc3ccc(Br)c(C)c32)ccc1O [10720/C09] — higher, 44.7%
- COc1ccc(O)c(C=C2C(=O)Nc3ccc(Br)c(C)c32)c1 [10720/C10] — higher, 2.0%
- Cc1c(Br)ccc2c1C(=Cc1ncc[nH]1)C(=O)N2 [10720/C11] — lower, -21.9%
- CNS(=O)(=O)c1ccc2c(c1)C(=Cc1c(F)cc(F)cc1F)C(=O)N2 [10720/D02] — higher, 11.1%
- CNS(=O)(=O)c1ccc2c(c1)C(=Cc1ccc(O)cc1OC)C(=O)N2 [10720/D03] — higher, 0.9%
